Results: ChEMBL document CHEMBL1201862, “PubChem BioAssay data set” (2004)
The source made the active and inactive calls.

Experiments:
[1] = P. falciparum Dd2 growth inhibitors, dose response, SYBR Green, cherry-picked samples (AID 1159567); assay type: functional, cell-based
[2] = toxicity to human hepatoma HepG2 cells – cell-based, cherry-picked samples, cytotoxicity control, dose response (AID 1159577); assay type: functional
Troponin, cardiac muscle = Troponin, cardiac muscle (Homo sapiens, UniProt P19429+P45379+P63316); assay: Fluorescence-based biochemical high throughput dose response assay for activators of the calcium sensitivity of cardiac Regulated Thin Filaments (RTF). [Related pubchem assays (depositor defined):AID493008, AID493018, AID504382, AID504383]; assay type: protein-complex assay
[3] = biological target: T1, DNA repair protein RAD52 homolog (Homo sapiens, UniProt P43351); assay type: functional, biochemical
T1 sequence (P43351 whole entry): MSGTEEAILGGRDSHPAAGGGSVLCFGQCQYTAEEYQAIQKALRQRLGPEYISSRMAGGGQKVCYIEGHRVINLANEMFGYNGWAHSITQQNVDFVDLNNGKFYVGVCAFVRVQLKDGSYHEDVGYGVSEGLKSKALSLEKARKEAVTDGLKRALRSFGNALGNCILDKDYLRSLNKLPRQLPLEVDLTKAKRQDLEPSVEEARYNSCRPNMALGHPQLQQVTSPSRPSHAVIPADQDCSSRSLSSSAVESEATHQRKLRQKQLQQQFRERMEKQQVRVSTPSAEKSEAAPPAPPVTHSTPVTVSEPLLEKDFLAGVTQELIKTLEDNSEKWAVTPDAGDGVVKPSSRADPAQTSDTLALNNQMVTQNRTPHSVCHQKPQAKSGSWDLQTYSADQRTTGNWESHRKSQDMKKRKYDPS

Large T antigen = Large T antigen (Simian virus 40, UniProt P03070); assay type: functional, Betapolyomavirus macacae;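 also: Confirmatory-stage PubChem screen for compounds that inhibit SV40 T antigen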
Large T antigen, sequence (P03070 whole entry, the tested form may be a part): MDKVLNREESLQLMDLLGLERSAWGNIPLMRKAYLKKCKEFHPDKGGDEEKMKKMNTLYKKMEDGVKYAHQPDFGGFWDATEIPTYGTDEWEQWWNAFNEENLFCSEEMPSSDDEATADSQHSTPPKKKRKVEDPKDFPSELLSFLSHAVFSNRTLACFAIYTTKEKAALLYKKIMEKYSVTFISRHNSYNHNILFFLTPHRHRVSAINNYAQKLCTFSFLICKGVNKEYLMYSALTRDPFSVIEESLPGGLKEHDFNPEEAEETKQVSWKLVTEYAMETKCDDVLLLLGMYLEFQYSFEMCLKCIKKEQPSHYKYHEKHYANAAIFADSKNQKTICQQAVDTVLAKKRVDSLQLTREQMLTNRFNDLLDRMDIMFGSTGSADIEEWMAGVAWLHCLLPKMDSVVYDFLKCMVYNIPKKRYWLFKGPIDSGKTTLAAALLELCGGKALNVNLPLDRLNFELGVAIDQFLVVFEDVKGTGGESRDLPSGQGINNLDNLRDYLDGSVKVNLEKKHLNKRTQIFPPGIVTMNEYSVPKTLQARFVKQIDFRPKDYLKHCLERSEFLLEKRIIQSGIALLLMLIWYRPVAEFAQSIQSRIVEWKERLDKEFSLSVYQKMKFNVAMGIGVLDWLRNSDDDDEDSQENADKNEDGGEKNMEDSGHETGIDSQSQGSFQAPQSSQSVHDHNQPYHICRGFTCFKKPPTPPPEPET

[4] = biological target: T2, RNA-binding protein pos-1 (Caenorhabditis elegans, UniProt G5EF15); assay: disruptors of C. elegans POS-1 RNA interaction – biochemical, fluorescence polarization, dose response (AID 1964);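 also: purified POS-1 fused to maltose binding protein made in E. coli; potency of compounds blocking POS-1 binding to fluorescent RNA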
T2 sequence (G5EF15 whole entry): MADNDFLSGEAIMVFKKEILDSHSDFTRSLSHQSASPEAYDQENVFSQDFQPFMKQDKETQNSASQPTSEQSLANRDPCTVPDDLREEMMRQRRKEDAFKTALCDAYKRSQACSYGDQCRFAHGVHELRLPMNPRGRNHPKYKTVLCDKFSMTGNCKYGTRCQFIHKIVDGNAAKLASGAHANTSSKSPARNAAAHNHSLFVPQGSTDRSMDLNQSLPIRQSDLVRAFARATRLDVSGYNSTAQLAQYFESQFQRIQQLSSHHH

[5] = biological target: T3, Zinc finger protein mex-5 (Caenorhabditis elegans, UniProt Q9XUB2); assay: potency of MEX-5 RNA-binding blockers – biochemical, C. elegans, fluorescence polarization, dose response (AID 1960)
T3 sequence (Q9XUB2 whole entry): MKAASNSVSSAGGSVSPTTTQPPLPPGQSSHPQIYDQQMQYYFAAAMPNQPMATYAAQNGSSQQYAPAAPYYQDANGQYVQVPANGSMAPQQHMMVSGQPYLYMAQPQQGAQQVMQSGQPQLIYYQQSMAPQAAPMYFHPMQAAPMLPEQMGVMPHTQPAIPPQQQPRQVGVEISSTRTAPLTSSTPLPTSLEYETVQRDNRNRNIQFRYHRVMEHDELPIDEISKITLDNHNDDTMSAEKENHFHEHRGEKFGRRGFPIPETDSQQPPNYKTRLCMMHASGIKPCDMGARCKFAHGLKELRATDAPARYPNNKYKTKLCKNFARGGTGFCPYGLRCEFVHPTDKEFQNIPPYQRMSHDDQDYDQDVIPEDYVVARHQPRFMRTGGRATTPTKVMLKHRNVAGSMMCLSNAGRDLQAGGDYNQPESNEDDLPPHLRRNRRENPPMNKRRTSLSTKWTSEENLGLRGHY

Cytochrome P450 3A4 = Cytochrome P450 3A4 (Homo sapiens, UniProt P08684); settings: Potency;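 also: confirmatory qHTS run detecting inhibitors and substrates of CYP3A4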
Cytochrome P450 3A4, sequence (P08684 whole entry): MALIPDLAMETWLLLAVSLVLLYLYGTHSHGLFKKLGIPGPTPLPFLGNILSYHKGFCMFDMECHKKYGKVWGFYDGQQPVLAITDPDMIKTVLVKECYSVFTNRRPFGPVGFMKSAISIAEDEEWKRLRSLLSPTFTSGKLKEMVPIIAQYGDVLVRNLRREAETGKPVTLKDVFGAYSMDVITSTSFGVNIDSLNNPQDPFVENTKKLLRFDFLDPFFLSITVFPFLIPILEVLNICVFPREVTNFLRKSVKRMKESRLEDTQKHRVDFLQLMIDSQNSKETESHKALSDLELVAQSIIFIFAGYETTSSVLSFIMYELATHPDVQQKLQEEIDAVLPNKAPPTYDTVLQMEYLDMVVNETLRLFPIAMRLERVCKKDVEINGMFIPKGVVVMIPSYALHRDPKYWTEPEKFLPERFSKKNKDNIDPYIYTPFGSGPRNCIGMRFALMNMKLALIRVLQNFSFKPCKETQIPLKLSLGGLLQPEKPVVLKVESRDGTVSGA

[6] = NIH3T3 cell viability loss – ATP luminescence, mouse fibroblasts, counter-screen, dose response (AID 2010); assay type: functional, cell-based;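 also: cells exposed to compound for about 90 hours before reading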
[7] = Trypanosoma cruzi growth suppression in host cells – NIH3T3 host cells, beta-gal luminescence, confirmation (AID 2044); assay type: functional, cell-based;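 also: intracellular parasites grown in NIH/3T3 mouse fibroblasts as host cells; luminescent beta-galactosidase reporter signal from transgenic T. cruzi replicating inside host cells; inhibitors lower the luminescence signal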
[8] = A cytotoxicity screen of small molecule inhibitors of the PhoP region in Salmonella typhi identified in the primary screen. [Related pubchem assays: 1850, 1864, 1985 ]; assay type: functional
Nonstructural protein 1 = Nonstructural protein 1 (Influenza A virus, UniProt Q194T2); assay type: functional, Influenza A virus (A/California/07/2009(H1N1))
Nonstructural protein 1, sequence (Q194T2 whole entry, the tested form may be a part): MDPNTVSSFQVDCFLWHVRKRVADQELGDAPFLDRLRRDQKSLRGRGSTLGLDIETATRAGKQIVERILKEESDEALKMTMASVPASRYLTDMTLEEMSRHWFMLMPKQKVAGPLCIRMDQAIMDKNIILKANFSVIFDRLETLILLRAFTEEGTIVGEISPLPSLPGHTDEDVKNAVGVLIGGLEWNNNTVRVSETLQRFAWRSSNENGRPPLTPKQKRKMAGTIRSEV

[9] = biological target: T4, Carboxy-terminal domain RNA polymerase II polypeptide A small phosphatase 1 (Homo sapiens, UniProt Q9GZU7); assay: CTDSP1 inhibitors, concentration-response, biochemical, absorbance readout, ultra-high-throughput screen actives (AID 540297); assay type: functional
T4 sequence (Q9GZU7 whole entry): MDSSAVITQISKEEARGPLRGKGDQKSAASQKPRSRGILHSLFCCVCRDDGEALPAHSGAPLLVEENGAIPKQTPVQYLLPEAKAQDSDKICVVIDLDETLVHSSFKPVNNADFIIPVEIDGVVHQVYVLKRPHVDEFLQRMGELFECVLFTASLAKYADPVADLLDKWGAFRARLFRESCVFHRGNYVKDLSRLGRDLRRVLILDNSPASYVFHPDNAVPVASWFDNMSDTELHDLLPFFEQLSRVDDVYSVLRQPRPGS

[10] = viability of uninfected HEp-2 cells – cell-based, HTS, cytotoxicity control for RSV inhibitor project, dose response (AID 2410); assay type: functional; settings: human respiratory syncytial virus

Which AC50 [1] does the source give for `C[C@H]1CN([C@@H](C)CO)S(=O)(=O)c2ccc(C#Cc3ccc(F)cc3)cc2O[C@@H]1CN(C)C(=O)NC1CCCC1` here?
The AC50 was 6.21 µM (active).

And the AC50 [2]?
Its AC50 is 25.6 µM (active).

Which AC50 [1] does the source give for `C[C@@H]1CN([C@@H](C)CO)C(=O)Cc2cc(NC(=O)Nc3ccccc3)ccc2O[C@H]1CN(C)Cc1ccc(-c2ccccc2)cc1` here?
The AC50 was 1.87 µM (active).

What about the AC50 [2] of the same molecule?
The AC50 was 18.5 µM (active).

For `O=C(Nc1ccc(Cl)c(Cl)c1)Nc1ccc([N+](=O)[O-])cn1`, which EC50 (Troponin, cardiac muscle) is on record?
The EC50 was > 71.5 µM (inactive).

Which AC50 [3] does the source give for `CCOc1ccc(NCc2cccn2-c2nnc(N3CCC(C(=O)NCCCN4CCCCC4C)CC3)s2)cc1` (stereo not drawn) here?
Its AC50 is 19.6 µM (active).

And the IC50 (Large T antigen)?
The IC50 was 19.5 µM (active).

Which results are given for `Cc1ccc(/C=C2\Oc3c(ccc(O)c3CN3CCN(CCO)CC3)C2=O)cc1`?
EC50 (Troponin, cardiac muscle): 19.5 µM (inactive); EC50 [4]: 36 µM (active); EC50 [5]: 73.9 µM (active)

For `CCCCCCC1=Cc2cc(OC)c(OC)cc2C(CC(=O)/C=C/OC)O1` (stereo not drawn), which AC50 (Cytochrome P450 3A4) is on record?
Its AC50 is 5.01 µM (inconclusive).

For `COc1cccc(OCC(O)CN2CCC(CN3C(=O)c4cccc5cccc(c45)C3=O)CC2)c1` (stereo not drawn), which AC50 [3] is on record?
The AC50 was 10.6 µM (active).

And the EC50 [6]?
The EC50 was 9.64 µM (active).

What about the EC50 [7] of the same molecule?
The EC50 was 2.83 µM (active).

Which AC50 (Cytochrome P450 3A4) does the source give for `N#CC(Cl)Cl` here?
Its AC50 is 31.6 µM (inconclusive).

Which EC50 [8] does the source give for `CCOC(=O)N1CCC(=NNc2ccnc3cc(Cl)ccc23)CC1` here?
The EC50 was > 50 µM (active).

With `COc1ccc(-c2oc3ccccc3c(=O)c2O)cc1` as the molecule, how does the AC50 (Cytochrome P450 3A4) read?
The AC50 was 3.98 µM (inconclusive).

For `CC1CCN(C2=C(NS(=O)(=O)c3ccccc3)C(=O)c3ccccc3C2=O)CC1`, which IC50 (Nonstructural protein 1) is on record?
The IC50 was 11.3 µM (active).

For `Cc1ccc(NC(=O)COc2ccc(/C=N/NC(=O)CSCc3ccccc3)cc2)cc1`, which EC50 (Troponin, cardiac muscle) is on record?
The EC50 was > 71.5 µM (inactive).

And the IC50 [9]?
Its IC50 is 9.82 µM (active).

What does the source list for `COC(=O)C1=C(C)N(Cc2ccco2)C(=O)N[C@H]1c1ccc(Br)cc1`?
EC50 [8]: > 50 µM (active); CC50 [10]: 42.9 µM (active); IC50 (cells): 3.12 µM (active)
